From US9302999B2, “Substituted triazoles as herbicides” (E. I. DU PONT DE NEMOURS AND COMPANY, priority 2012, dated 2016)
Read-outs that look alike come from different tables or passages of the source.

How the values were obtained:
Type in all cases: in vivo
[1] = tested on: winter wheat (Triticum aestivum); assay: Test C pre-/postemergence: winter wheat
Outline: (§1)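 Visual injury scored 0–100 (100 = complete control) against untreated controls after 13–15 greenhouse days. Surfactant-containing solvent formulations applied either to soil after sowing (loam/sand) or over 1- to 4-leaf plants, 2–18 cm tall.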

[2] = tested on: pigweed (Amaranthus retroflexus); assay: Test C pre-/postemergence: pigweed
Outline: as §1

[3] = tested on: nutsedge, yellow (yellow nutsedge, Cyperus esculentus); assay: Test C pre-/postemergence: nutsedge, yellow
Outline: as §1

[4] = tested on: crabgrass, large (large crabgrass, Digitaria sanguinalis); assay: Test A pre-/postemergence: crabgrass, large; details: Digitaria sanguinalis, 240 h; for pest or weed control at 125 g/ha: 125 g ai/ha; for pest or weed control at 500 g/ha: 500 g ai/ha
Outline: (§2)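 Each species received preemergence soil-directed spraying and, at the same time, postemergence treatment of seedlings 2–10 cm tall. Formulation: non-phytotoxic solvent mixture including surfactant. Response assessed visually about ten days on, relative to untreated controls, 0–100 scale.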

[5] = tested on: galium (catchweed bedstraw, Galium aparine); assay: Test C pre-/postemergence: galium
Outline: as §1

soybean (Glycine max) = assay: Test C pre-/postemergence: soybean
Outline: as §1

[6] = tested on: foxtail, giant (giant foxtail, Setaria faberii); assay: Test A pre-/postemergence: foxtail, giant; details: Setaria faberi, 240 h; for pest or weed control at 125 g/ha: 125 g ai/ha; for pest or weed control at 500 g/ha: 500 g ai/ha
Outline: as §2

[7] = tested on: blackgrass (Alopecurus myosuroides); assay: Test C pre-/postemergence: blackgrass
Outline: as §1

[8] = tested on: velvetleaf (Abutilon theophrasti); assay: Test C pre-/postemergence: velvetleaf
Outline: as §1

[9] = tested on: foxtail, giant (giant foxtail, Setaria faberii); assay: Test C pre-/postemergence: foxtail, giant
Outline: as §1

[10] = tested on: lambsquarters (Chenopodium album); assay: Test C pre-/postemergence: lambsquarters
Outline: as §1

[11] = tested on: velvetleaf (Abutilon theophrasti); assay: Test A pre-/postemergence: velvetleaf; details: Abutilon theophrasti, 240 h; for pest or weed control at 125 g/ha: 125 g ai/ha; for pest or weed control at 500 g/ha: 500 g ai/ha
Outline: as §2

[12] = Postemergence, 31 g ai/ha, scale 0 to 100 (0 no effect, 100 complete control)
[13] = Postemergence, 62 g ai/ha, scale 0 to 100 (0 no effect, 100 complete control)
[14] = Postemergence, 125 g ai/ha, scale 0 to 100, 0 no effect, 100 complete control
[15] = Postemergence, 250 g ai/ha, scale 0 to 100
[16] = Preemergence, 31 g ai/ha, scale of 0 to 100, 0 is no effect, 100 is complete control
[17] = Preemergence, 62 g ai/ha, scale of 0 to 100, 0 is no effect, 100 is complete control
[18] = Preemergence, 125 g ai/ha, scale 0 to 100, 0 no effect, 100 complete control
[19] = Preemergence, 250 g ai/ha, scale 0 to 100, 0 no effect, 100 complete control

Cc1nn(-c2ccc(F)cc2)nc1Oc1ccnc(C(F)(F)F)c1 [Compound 129, 4-[[2-(4-fluorophenyl)-5-methyl-2H-1,2,3-triazol-4-yl]oxy]-2-(trifluoromethyl)pyridine]
60%: pest or weed control at 125 g/ha ([11]; pre-emergence, Preemergence, 0 to 100 scale where 0 is no effect and 100 is complete control, read-out: Plant response rating, Velvetleaf)
80: Plant response rating, Blackgrass [7, 15] | Plant response rating, Velvetleaf [8, 14]
25: Plant response rating, Wheat [1, 13]
100: Plant response rating, Pigweed [2, 15] | Plant response rating, Pigweed [2, 16] | Plant response rating, Pigweed [2, 17] | Plant response rating, Pigweed [2, 18] | Plant response rating, Pigweed [2, 19] | Plant response rating, Galium [5, 17] | Plant response rating, Galium [5, 18] | Plant response rating, Galium [5, 19] | Plant response rating, Velvetleaf [8, 15] | Plant response rating, Lambsquarters [10, 15] | Plant response rating, Lambsquarters [10, 19]
45: Plant response rating, Velvetleaf [8, 12] | Plant response rating, Velvetleaf [8, 13] | Plant response rating, Velvetleaf [8, 18]
100%: pest or weed control at 125 g/ha ([4]; pre-emergence, Preemergence, 0 to 100 scale where 0 is no effect and 100 is complete control, read-out: Plant response rating, Crabgrass, Large) | pest or weed control at 500 g/ha ([4]; pre-emergence, Preemergence, 0 to 100 scale (0 no effect, 100 complete control), read-out: Plant response rating, Crabgrass, Large) | pest or weed control at 125 g/ha ([6]; pre-emergence, Preemergence, 0 to 100 scale where 0 is no effect and 100 is complete control, read-out: Plant response rating, Foxtail, Giant) | pest or weed control at 500 g/ha ([6]; pre-emergence, Preemergence, 0 to 100 scale (0 no effect, 100 complete control), read-out: Plant response rating, Foxtail, Giant) | pest or weed control at 500 g/ha ([11]; post-emergence, Postemergence, visual rating on 0 to 100 scale (0 no effect, 100 complete control), approximately ten days, read-out: Velvetleaf plant response rating)
70%: pest or weed control at 125 g/ha ([11]; post-emergence, Postemergence, 0 to 100 scale, 0 is no effect, 100 is complete control, read-out: Velvetleaf plant response rating) | pest or weed control at 500 g/ha ([11]; pre-emergence, Preemergence, 0 to 100 scale (0 no effect, 100 complete control), read-out: Plant response rating, Velvetleaf)
75: Plant response rating, Soybean (soybean (Glycine max); [15])
70: Plant response rating, Soybean (soybean (Glycine max); [14]) | Plant response rating, Blackgrass [7, 14]
20: Plant response rating, Wheat [1, 12] | Plant response rating, Wheat [1, 17] | Plant response rating, Soybean (soybean (Glycine max); [12]) | Plant response rating, Foxtail, Giant [9, 13]
60: Plant response rating, Wheat [1, 19] | Plant response rating, Galium [5, 12] | Plant response rating, Blackgrass [7, 13]
65: Plant response rating, Foxtail, Giant [9, 15]
10: Plant response rating, Soybean (soybean (Glycine max); [18]) | Plant response rating, Velvetleaf [8, 17]
30: Plant response rating, Wheat [1, 14] | Plant response rating, Wheat [1, 18] | Plant response rating, Foxtail, Giant [9, 14]
90: Plant response rating, Galium [5, 14] | Plant response rating, Galium [5, 15] | Plant response rating, Blackgrass [7, 16] | Plant response rating, Blackgrass ([7]; Preemergence, 62 g ai/ha, scale 0 to 100, 0 no effect, 100 complete control) | Plant response rating, Blackgrass [7, 18] | Plant response rating, Blackgrass [7, 19]
0: Plant response rating, Wheat [1, 16] | Plant response rating, Nutsedge, Yellow [3, 12] | Plant response rating, Nutsedge, Yellow [3, 13] | Plant response rating, Nutsedge, Yellow [3, 14] | Plant response rating, Nutsedge, Yellow [3, 15] | Plant response rating, Nutsedge, Yellow [3, 16] | Plant response rating, Nutsedge, Yellow [3, 17] | Plant response rating, Nutsedge, Yellow [3, 18] | Plant response rating, Soybean (soybean (Glycine max); [16]) | Plant response rating, Soybean (soybean (Glycine max); [17]) | Plant response rating, Velvetleaf [8, 16] | Plant response rating, Foxtail, Giant [9, 12]
95: Plant response rating, Velvetleaf [8, 19] | Plant response rating, Foxtail, Giant [9, 16] | Plant response rating, Lambsquarters [10, 16] | Plant response rating, Lambsquarters [10, 17]
40: Plant response rating, Wheat [1, 15] | Plant response rating, Soybean (soybean (Glycine max); [13]) | Plant response rating, Soybean (soybean (Glycine max); [19]) | Plant response rating, Blackgrass [7, 12]
90%: pest or weed control at 125 g/ha ([4]; post-emergence, Postemergence, 0 to 100 scale, 0 is no effect, 100 is complete control, read-out: Crabgrass, Large plant response rating) | pest or weed control at 500 g/ha ([4]; post-emergence, Postemergence, visual rating on 0 to 100 scale (0 no effect, 100 complete control), approximately ten days, read-out: Crabgrass, Large plant response rating) | pest or weed control at 125 g/ha ([6]; post-emergence, Postemergence, 0 to 100 scale, 0 is no effect, 100 is complete control, read-out: Foxtail, Giant plant response rating) | pest or weed control at 500 g/ha ([6]; post-emergence, Postemergence, visual rating on 0 to 100 scale (0 no effect, 100 complete control), approximately ten days, read-out: Foxtail, Giant plant response rating)
5: Plant response rating, Nutsedge, Yellow [3, 19]
98: Plant response rating, Pigweed [2, 13] | Plant response rating, Pigweed [2, 14] | Plant response rating, Foxtail, Giant [9, 17] | Plant response rating, Foxtail, Giant [9, 18] | Plant response rating, Foxtail, Giant [9, 19] | Plant response rating, Lambsquarters [10, 12] | Plant response rating, Lambsquarters [10, 13] | Plant response rating, Lambsquarters [10, 14] | Plant response rating, Lambsquarters [10, 18]
85: Plant response rating, Pigweed [2, 12] | Plant response rating, Galium [5, 13] | Plant response rating, Galium [5, 16]
